Where a name gives a salt, the structure may show the parent alone.
Columns and labels:
CHIKV replicon = assay: microbe, parasite or virus in culture; type: cell-based, Chikungunya virus (CHIKV)
SFV-Rluc = conditions: for SFV replication % left: primary screening of chemical libraries, compounds tested at 50 µM

| SMILES | CHIKV replicon % left (CHIKV replicon) [%] | SFV replication % left (surviving fraction, remaining percentage of SFV replication) (SFV-Rluc) [%] | SFV replication % left (SFV-Rluc) [%] | % left (remaining SFV replication) (SFV-Rluc; Supplementary Table 2, moderately active compounds (25 - 60% remaining), primary screen at 50 µM) [%] |
| --- | --- | --- | --- | --- |
| CCN1C(=O)CC(=O)N(CC)C1=S | 89.2 | 75.7 | – | – |
| CN(C)c1cccc2c(S(=O)(=O)Cl)cccc12 | 10.4 | 4.6 | – | – |
| Cc1c(C)c2c(c(C)c1O)CCC(C)(C(=O)O)O2 (centres unmarked) | 101.5 | 76.9 | – | – |
| C=CC[C@]1(O)CC[C@H]2[C@@H]3CCC4=CCCC[C@@H]4[C@H]3CC[C@@]21C | 49.4 | 37.2 | – | – |
| CC(C)NCC(O)c1ccc(O)c(O)c1.Cl (centres unmarked) | 99.3 | 112.5 | – | – |
| N[C@@H](Cc1ccc(O)c(O)c1)C(=O)O.N[C@@H](Cc1ccc(O)c(O)c1)C(=O)O | 54.8 | 43.6 | – | – |
| Cc1ccccc1OCC(O)CO (centres unmarked) | 54.1 | 79.2 | – | – |
| CC(C)(CO)[C@@H](O)C(=O)NCCC(=O)[O-].CC(C)(CO)[C@@H](O)C(=O)NCCC(=O)[O-].O.[Ca+2] | 106.1 | 93.1 | – | – |
| C[C@H](C(=O)O)c1cccc(C(=O)c2ccccc2)c1.C[C@H](C(=O)O)c1cccc(C(=O)c2ccccc2)c1 | 99.6 | – | – | – |
| CC(C)(C)NCC(O)c1ccc(O)c(CO)c1.CC(C)(C)NCC(O)c1ccc(O)c(CO)c1.O=S(=O)(O)O (racemic) [(+/-) Salbutamol sulfate] | 71.9 | 105.0 | – | – |
| CC(C)NCC(O)c1ccc(O)c(O)c1.CC(C)NCC(O)c1ccc(O)c(O)c1.O=S(=O)(O)O (racemic) [(+/-)-Isoproterenol hemisulfate salt] | 105.1 | 110.9 | – | – |
| CC12CCC(CC1=O)C2(C)C (racemic) [DL-Camphon, Campher (synth.)] | 105.4 | 83.9 | – | – |
| O=C1c2c(O)cccc2Cc2cccc(O)c21 [1,8-Dihydroxyanthrone] | 40.9 | 27.2 | – | – |
| CCNCC(O)c1ccc(O)cc1 (centres unmarked) [1-(4-Oxyphenyl)-1-oxy-2-ethylamonoethane] | 105.4 | 86.9 | – | – |
| CCCCNC(=O)NS(=O)(=O)c1ccc(N)cc1 [1-Butyl-3-sulfanilylurea [carbutamide]] | 67.5 | 83.9 | – | – |
| COc1ccccc1-c1cc(=O)c2ccc3ccccc3c2o1 [2'-Methoxy-a-naphthoflavone] | 81.0 | 45.8 | – | – |
| O=C(O)c1cccc(O)c1O [2,3-Dihydroxybenzoic acid] | 105.1 | 93.1 | – | – |
| O=C(O)c1ccc(O)cc1O [2,4-Dihydroxylbenzoic acid] | 29.5 | 32.1 | – | – |
| O=C(O)c1cc(O)ccc1O [2,5-Dihydroxybenzoic acid] | 83.7 | 127.8 | – | – |
| Cc1ccc(C)c(O)c1 [2,5-Dimethylphenol] | 100.5 | 84.6 | – | – |
| O=C(O)c1c(O)cccc1O [2,6-Dihydroxybenzoic acid] | 62.3 | 118.7 | – | – |
| CC(C(=O)O)c1cccc(C(=O)O)c1 (centres unmarked) [2-(3-Carboxyphenyl)propionic acid] | 94.3 | 105.7 | – | – |

| SMILES | CHIKV replicon % left (CHIKV replicon) [%] | SFV replication % left (surviving fraction, remaining percentage of SFV replication) (SFV-Rluc) [%] | SFV replication % left (SFV-Rluc) [%] | % left (remaining SFV replication) (SFV-Rluc; Supplementary Table 2, moderately active compounds (25 - 60% remaining), primary screen at 50 µM) [%] |
| --- | --- | --- | --- | --- |
| Nc1ccc(Cl)cc1C(=O)c1ccccc1F [2-Amino-5-chloro-2'-fluorobenzophenone] | 82.2 | 167.4 | – | – |
| CC(=O)c1ccccc1O [2-Hydroxyacetophenone] | 99.4 | 129.7 | – | – |
| O=C(O)Cc1ccccc1O [2-Hydroxyphenylacetic acid] | 14.3 | 7.3 | – | – |
| COc1cc(C(=O)O)cc(OC)c1OC [3,4,5-Trimethoxybenzoic acid] | 28.8 | 34.0 | – | – |
| O=C(O)c1ccc(O)c(O)c1 [3,4-Dihydroxybenzoic acid] | 101.6 | 124.5 | – | – |
| O=C(O)c1cc(O)cc(O)c1 [3,5-Dihydroxybenzoic acid] | 87.8 | 6.9 | – | – |
| O=c1oc2cc(O)ccc2cc1-c1nc2ccccc2o1 [3-(2-Benzoxazolyl)umbelliferone] | 61.8 | 21.0 | – | – |
| CC(=O)CC(c1ccccc1)c1c(O)c2ccccc2oc1=O (centres unmarked) [3-(a-Acetonylbenzyl)-4-hydroxycoumarin] | 57.2 | 79.5 | – | – |
| O=C(c1ccccc1)c1cc2c(ccc3ccccc32)oc1=O [3-Benzoylbenzo(F)coumarin] | 68.0 | 39.9 | – | – |
| CC(=O)c1cccc(O)c1 [3-Hydroxyacetophenone] | 97.4 | 125.8 | – | – |
| O=C(O)Cc1cccc(O)c1 [3-hydroxyphenylacetic acid] | 54.1 | 110.8 | – | – |
| CN1C(=O)CN=C(c2ccc(Cl)cc2)c2cc(Cl)ccc21 [4'-Chlorodiazepam] | 105.5 | 64.0 | – | – |
| Cc1c(N)c(=O)n(-c2ccccc2)n1C [4-Aminoantipyrine [ampyrone]] | 89.2 | 51.6 | – | – |
| O=c1cc(O)c2ccccc2o1 [4-Hydroxycoumarin] | 95.4 | 100.2 | – | – |
| O=C(O)Cc1ccc(O)cc1 [4-Hydroxyphenylacetic acid] | 87.2 | 103.6 | – | – |
| Cc1ccc(O)c(O)c1 [4-Methyl pyrocatechol] | 98.8 | 111.1 | – | – |
| CN(C)CCCN1c2ccccc2Sc2ccc(Cl)cc21 [Chlorpromazine hydrochloride] | 105.4 | – | – | – |
| CN1[C@@H]2CC[C@H]1C[C@@H](OC(=O)C(O)c1ccccc1)C2 (some centres unmarked) [Homatropine hydrobromide] | 100.4 | – | – | – |
| C=CCOc1ccccc1OCC(O)CNC(C)C.Cl (centres unmarked) [PC-142] | – | – | 92.4 | – |
| CCCCC1C(=O)N(c2ccccc2)N(c2ccc(O)cc2)C1=O (centres unmarked) [PC-143] | – | – | 84.8 | – |
| CCOc1ccc(NC(C)=O)cc1 [PC-150] | – | 71.8 | – | – |
| CCOc1ccc(NC(C)=O)cc1 [PC-151] | – | 80.6 | – | – |

| SMILES | CHIKV replicon % left (CHIKV replicon) [%] | SFV replication % left (surviving fraction, remaining percentage of SFV replication) (SFV-Rluc) [%] | SFV replication % left (SFV-Rluc) [%] | % left (remaining SFV replication) (SFV-Rluc; Supplementary Table 2, moderately active compounds (25 - 60% remaining), primary screen at 50 µM) [%] |
| --- | --- | --- | --- | --- |
| CCC1(c2ccccc2)C(=O)NC(=O)NC1=O [PC-153] | – | 58.6 | – | – |
| CCN(CC)CCNC(=O)c1ccc(N)cc1.Cl [PC-166] | – | 89.0 | – | – |
| CCN(CC)CCOC(=O)c1ccc(N)cc1.Cl [PC-167] | – | 105.4 | – | – |
| CC(CN1c2ccccc2Sc2ccccc21)N(C)C.Cl (centres unmarked) [PC-169] | – | 48.8 | – | – |
| CC(C)[N+](C)(CCOC(=O)C1c2ccccc2Oc2ccccc21)C(C)C.[Br-] [PC-171] | – | 77.0 | – | – |
| CC(C)NCC(O)COc1cccc2ccccc12.Cl (centres unmarked) [PC-174] | – | 74.0 | – | – |
| CC(Cc1ccc2c(c1)OCO2)NCC(O)c1ccc(O)c(O)c1.Cl (centres unmarked) [PC-177] | – | 128.4 | – | – |
| Cc1ncc(CO)c(CO)c1O.Cl [PC-178] | – | 100.9 | – | – |
| COc1ccc(CN(CCN(C)C)c2ccccn2)cc1.O=C(O)/C=C\C(=O)O [PC-179] | – | 73.7 | – | – |
| Oc1cccc(O)c1 [PC-181] | – | 67.1 | – | – |
| Cc1cc2nc3c(=O)[nH]c(=O)nc-3n(C[C@H](O)[C@H](O)[C@H](O)CO)c2cc1C [PC-182] | – | – | – | 43.1 |
| O=C1NS(=O)(=O)c2ccccc21.[Na] [PC-183] | – | 105.0 | – | – |
| CC(C)(C)NCC(O)c1ccc(O)c(CO)c1.CC(C)(C)NCC(O)c1ccc(O)c(CO)c1.O=S(=O)(O)O (centres unmarked) [PC-185] | – | 105.0 | – | – |
| CCC1(c2ccccc2)C(=O)N=C([O-])NC1=O.[Na+] (centres unmarked) [PC-189] | – | 88.1 | – | – |
| CC(C)NCC(O)c1ccc(NS(C)(=O)=O)cc1.Cl (centres unmarked) [PC-191] | – | 100.5 | – | – |
| N=C(N)NS(=O)(=O)c1ccc(N)cc1 [PC-196] | – | 63.5 | – | – |
| Cc1nnc(NS(=O)(=O)c2ccc(N)cc2)s1 [PC-200] | – | 100.4 | – | – |
| Cc1nnc(NS(=O)(=O)c2ccc(N)cc2)s1 [PC-203] | – | 89.6 | – | – |
| CCCCNc1ccc(C(=O)OCCN(C)C)cc1.Cl [PC-215] | – | 102.8 | – | – |
| CC(C)(C)NC[C@H](O)COc1nsnc1N1CCOCC1.O=C(O)/C=C\C(=O)O [PC-225] | – | 129.1 | – | – |

Reference: paper PMC3242765, “Inhibitors of Alphavirus Entry and Replication Identified with a Stable Chikungunya Replicon Cell Line and Virus-Based Assays” (PLoS ONE, 2011)
